The structures appear in SMILES notation.

The first assay deals with T1, Rat liver microsomal squalene synthetase (Rattus norvegicus, UniProt Q02769).
T1 construct: Rat liver microsome, the source of enzyme; from tissue; host or cells: rat liver microsomes
T1 sequence (Q02769 1-416): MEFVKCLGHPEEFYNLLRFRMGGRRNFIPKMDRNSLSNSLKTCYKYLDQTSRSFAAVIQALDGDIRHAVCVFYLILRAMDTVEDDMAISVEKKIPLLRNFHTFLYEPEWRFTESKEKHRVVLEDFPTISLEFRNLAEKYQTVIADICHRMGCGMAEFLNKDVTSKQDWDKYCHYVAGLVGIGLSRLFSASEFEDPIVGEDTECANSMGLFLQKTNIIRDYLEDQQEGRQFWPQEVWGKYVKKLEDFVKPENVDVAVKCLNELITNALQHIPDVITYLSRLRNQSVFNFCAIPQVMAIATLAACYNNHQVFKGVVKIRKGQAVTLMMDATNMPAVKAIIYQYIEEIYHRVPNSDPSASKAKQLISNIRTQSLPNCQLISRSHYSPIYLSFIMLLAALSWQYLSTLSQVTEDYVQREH
The assay is described as follows: In vitro inhibition of squalene synthetase. Type of assay: biochemical. Particulars: 10 µM test compound; rat liver microsomes, labelled farnesyl pyrophosphate, 10 minutes at 37 °C; compared to controls with no test compound. The method, then:
In vitro inhibition of squalene synthetase may be measured by the following procedure. Rat liver microsomal squalene synthetase activity was measured using farnesyl pyrophosphate as a substrate and quantitating squalene synthesis using labelled farnesyl pyrophosphate and counting the squalene formed. Rat liver microsome, the source of enzyme, was prepared according to the method of Gillies, P. J., et al., Exp. Molc. Pathol. 44: 329-339 (1986), a modification of the procedure of Erickson, S. K., and Cooper, A. D., Metabolism, 29: 991-996 (1980). […] Oxygen was excluded from the closed incubation tube by degassing with nitrogen. The reaction was terminated by the addition of ethanolic KOH and after degassing with N2, the microsomal membranes were solubilized by heating at 60 °C for 30 minutes. The squalene was extracted into hexane, and the squalene was separated from all other radioactive molecules by passage over an activated alumina column. […] The per cent inhibition at a dose of 10 µM (or 1 µM) compared to controls with no test compound was determined. […]
Background: Liver microsomes are vesicles of endoplasmic reticulum, rich in cytochrome P450 enzymes.
As for `CCCN(Cc1ccc(Oc2ccccc2)cc1)C(=O)[C@H]1[C@@H](C(=O)O)[C@H](C(=O)O)[C@@H]1C(=O)N(Cc1ccccc1)Cc1ccc(Oc2ccccc2)cc1` [Example 63, (1α,2β,3β,4α)-1-[N-Propyl-N-(4-phenoxybenzyl)aminocarbonyl]-2-[N-benzyl-N-(4-phenoxybenzyl)aminocarbonyl]cyclobutane-3,4-dicarboxylic acid], the inhibition at 10 µM came out at 90%.
The same measure, in the same setting: then `CCCN(Cc1ccc(Oc2ccccc2)cc1)C(=O)[C@H]1[C@@H](C(=O)O)[C@H](C(=O)O)[C@@H]1C(=O)NCc1ccc(Oc2ccccc2)cc1` [Example 64D, (1α,2β,3β,4α)-1-[N-Propyl-N-(4-phenoxybenzyl)aminocarbonyl]-2-[N-(4-phenoxybenzyl)aminocarbonyl]cyclobutane-3,4-dicarboxylic acid], with 45%.
The same measure, in the same setting: to `O=C(O)[C@H]1[C@H](C(=O)O)[C@H](C(=O)OCc2ccc(Oc3ccccc3)cc2)[C@H]1C(=O)OCc1ccc(Oc2ccccc2)cc1` [Example 65B, (1α,2β,3β,4α)-1,2-Di-(4-phenoxybenzyloxycarbonyl)-3,4-dicarboxylic acid] belongs 58%.
With `CCCN(C(=O)[C@H]1[C@@H](C(=O)O)[C@H](C(=O)O)[C@@H]1C(=O)N(CCC)c1ccc(Nc2ccccc2)cc1)c1ccc(Nc2ccccc2)cc1` [Example 66C, (1α,2β,3β,4α)-1,2-Di[N-propyl-N-(4-phenylaminophenyl)aminocarbonyl]cyclobutane-3,4-dicarboxylic acid], the inhibition at 10 µM was 33%.
Molecule `CCCN(Cc1ccc(Nc2ccccc2)cc1)C(=O)[C@H]1[C@@H](C(=O)O)[C@H](C(=O)O)[C@@H]1C(=O)N(CCC)Cc1ccc(Nc2ccccc2)cc1` [Example 67C, (1α,2β,3β,4α)-1,2-Di[N-propyl-N-(4-phenylaminobenzyl)aminocarbonyl]cyclobutane-3,4-dicarboxylic acid] showed an inhibition at 10 µM of 87%.
On the same count and under the same terms, then `CCCN(Cc1ccc(Oc2ccccc2)cc1)C(=O)C1C(CO)C(C(=O)O)C1C(=O)N(CCC)Cc1ccc(Oc2ccccc2)cc1` (stereo not drawn) [Example 70B, (1α,2β,3β,4α)-1,2-Di[N-propyl-N-(4-phenoxybenzyl)aminocarbonyl]-4-hydroxymethyl-cyclobutane-3-carboxylic acid], with 80%.
Same read-out and setting: then `CCCN(Cc1ccc(Oc2ccccc2)cc1)C(=O)C1C(C=NO)C(C(=O)O)C1C(=O)N(CCC)Cc1ccc(Oc2ccccc2)cc1` (stereo not drawn) [Example 71C, (1α,2β,3β,4α)-1,2-Di[N-propyl-N-(4-phenoxybenzyl)aminocarbonyl]-4-[(hydroxyimino)methyl]-cyclobutane-3-carboxylic acid], with 77%.
`CCCN(Cc1cccc(Oc2ccccc2)c1)C(=O)C1C(C(=O)O)C(C(=O)O)C1C(=O)N(CCC)Cc1cccc(Oc2ccccc2)c1` (stereo not drawn) [Example 81B, (1α,2β,3β,4α)-1,2-Di[N-propyl-N-(3-phenoxybenzyl)aminocarbonyl]cyclobutane-3.4-dicarboxylic acid] gave an inhibition at 10 µM of 73%.
`CCCN(Cc1ccc(Oc2ccccc2)o1)C(=O)C1C(C(=O)O)C(C(=O)O)C1C(=O)N(CCC)Cc1ccc(Oc2ccccc2)o1` (stereo not drawn) [Example 82B, (1α,2β,3β,4α)-1,2-Di[N-propyl-N-(5-phenoxyfurfuryl)aminocarbonyl}cyclobutane-3,4-dicarboxylic acid] showed an inhibition at 10 µM of 67%.
As for `CCCN(Cc1ccc(Oc2ccccc2)s1)C(=O)C1C(C(=O)O)C(C(=O)O)C1C(=O)N(CCC)Cc1ccc(Oc2ccccc2)s1` (stereo not drawn) [Example 83B, (1α,2β,3β,4α)-1,2-Di[N-propyl-N-(5-phenoxythien-2-ylmethyl)aminocarbonyl]cyclobutane-3,4-dicarboxylic acid], testing at 10 µM gave an inhibition of 85%.
`CCCN(Cc1ccc(Oc2ccco2)cc1)C(=O)C1C(C(=O)O)C(C(=O)O)C1C(=O)N(CCC)Cc1ccc(Oc2ccco2)cc1` (centres unmarked) [Example 84G] returned an inhibition at 10 µM of 89%.
Same read-out and setting: to `CCCN(Cc1ccc(Cn2cccc2)cc1)C(=O)C1C(C(=O)O)C(C(=O)O)C1C(=O)N(CCC)Cc1ccc(Cn2cccc2)cc1` (stereo not drawn) [Example 86D, (1α,2β,3β,4α)-1,2-Di[N-propyl-N-(4,(pyrrol-1-ylmethyl)benzyl)aminocarbonyl]cyclobutane-3,4-dicarboxylic acid] belongs 86%; to `CCCN(Cc1ccc(Oc2cccc(C)c2)cc1)C(=O)C1C(C(=O)O)C(C(=O)O)C1C(=O)N(CCC)Cc1ccc(Oc2cccc(C)c2)cc1` (stereo not drawn) [Example 87B, (1α,2β,3β,4α)-1,2-Di{N-propyl-[4-(3'-methyl)phenoxybenzyl]aminocarbonyl}cyclobutane-3,4-dicarboxylic acid], 72%.

The assay is the same for the next values; noted with them: values marked * in Table 1: 1 µM test compound; rat liver microsomes, labelled farnesyl pyrophosphate, 10 minutes at 37 °C.
The molecule `CCCN(Cc1ccc(Sc2ccccc2)cc1)C(=O)C1C(C(=O)O)C(C(=O)O)C1C(=O)N(CCC)Cc1ccc(Sc2ccccc2)cc1` (stereo not drawn) [Example 68B, (1α,2β,3β,4α)-1,2-Di[N-propyl-N-(4-phenylthiobenzyl)aminocarbonyl]cyclobutane-3,4-dicarboxylic acid] displayed an inhibition at 1 µM of 84%.
With `CCCN(Cc1ccc(COc2ccccc2)cc1)C(=O)C1C(C(=O)O)C(C(=O)O)C1C(=O)N(CCC)Cc1ccc(COc2ccccc2)cc1` (stereo not drawn) [Example 69E, (1α,2β,3β,4α)-1,2-Di[N-propyl-N-[4-phenoxymethylbenzyl]aminocarbonyl]cyclobutane-3,4-dicarboxylic acid], the inhibition at 1 µM amounted to 56%.
The same measure, in the same setting: then `CCCN(Cc1ccc(Oc2ccccc2)cc1)C(=O)C1C(C(=O)O)C(c2nn[nH]n2)C1C(=O)N(CCC)Cc1ccc(Oc2ccccc2)cc1` (centres unmarked) [Example 72C], with 51%; and `CCCN(Cc1ccc(Oc2ccccc2)cc1)C(=O)C1C(Cc2nn[nH]n2)C(C(=O)O)C1C(=O)N(CCC)Cc1ccc(Oc2ccccc2)cc1` (centres unmarked) [Example 73B], with 75%; and `CCCN(Cc1ccc(Oc2ccccc2)cc1)C(=O)C1C(NC(=O)C(=O)O)C(C(=O)O)C1C(=O)N(CCC)Cc1ccc(Oc2ccccc2)cc1` (centres unmarked) [Example 74D], with 55%.
The same measure, in the same setting: then `CCCN(Cc1ccc(Oc2ccccc2)cc1)C(=O)C1C(NC(=O)CCC(=O)O)C(C(=O)O)C1C(=O)N(CCC)Cc1ccc(Oc2ccccc2)cc1` (stereo not drawn) [Example 75B, (1α,2β,3β,4α)-1,2-Di[N-propyl-N-(4-phenoxybenzyl)aminocarbonyl]-4-(3-carboxypropionylamino)cyclobutane-3-carboxylic acid], with 73%; and `CCCN(Cc1ccc(Oc2ccccc2)cc1)C(=O)C1C(C=CC(=O)O)C(C(=O)O)C1C(=O)N(CCC)Cc1ccc(Oc2ccccc2)cc1` (centres unmarked) [Example 76B], with 57%.
On the same count and under the same terms, then `CCCN(Cc1ccc(Oc2ccccc2)cc1)C(=O)C1C(CCC(=O)O)C(C(=O)O)C1C(=O)N(CCC)Cc1ccc(Oc2ccccc2)cc1` (centres unmarked) [Example 77B], with 51%; and `CCCN(Cc1ccc(Oc2ccccc2)cc1)C(=O)C1C(C(=O)O)C(C(O)C(=O)O)C1C(=O)N(CCC)Cc1ccc(Oc2ccccc2)cc1` (stereo not drawn) [Example 78B, (1α,2β,3β,4α)-1,2-Di[N-propyl-N-(4-phenoxybenzyl)aminocarbonyl]-4-(1-carboxy-1-hydroxymethyl)cyclobutane-3-carboxylic acid], with 82%; and `CCCN(Cc1ccc(Oc2nccs2)cc1)C(=O)C1C(C(=O)O)C(C(=O)O)C1C(=O)N(CCC)Cc1ccc(Oc2nccs2)cc1` (centres unmarked) [Example 85], with 56%.

In general, inhibition refers to the share of the control response that was lost under treatment. Low readings indicate little suppression, high ones strong suppression.

These data come from patent publication EP0677039B1, “CYCLOBUTANE DERIVATIVES AS INHIBITORS OF […] SYNTHETASE AND PROTEIN […]” (Abbott Laboratories, priority 1993, dated 1995).
